According to patent publication US4725683A, “Fluorophenoxyphenoxypropionates and derivatives thereof” (The Dow Chemical Company, priority 1985, dated 1988):

How the values were obtained:
Experiment in all cases: Selective postemergence, track sprayer
Format in all cases: in vivo
[1] = system: Fall Panicum
Experimental: (§1) Representative compositions of the present invention were evaluated for the postemergence control of species of plants listed in Table A. In these evaluations, pots of the plant species listed in Table A, grown to a height of about 10 cms, were used. Aqueous spray compositions, containing various amounts of 2-[4-(2-fluoro-4-trifluoromethylphenoxy)-phenoxy]propionic acid methy ester, i.e., 125 ppm, 62.5 ppm, 31.25 ppm, 15.6 ppm, 7.8 ppm and 3.9 ppm, respectively, were applied to separate pots. The spray compositions were made by mixing the active ingredient in acetone to 1/2 the final volume, i.e., twice the final concentration. An equal amount of water was added to the active ingredient/acetone mixture wherein the water contained 0.1 percent by weight of TWEEN® 200 surfactant. The application to the plants was made to the point of run-off and was carried out with conventional spraying equipment. Other pots were sprayed with similar compositions containing no toxicant to serve as controls. Thereafter, the pots were maintained under conditions conducive for plant growth. Two weeks after treatment, the pots were examined for plant growth and evaluated on a scale of 0 to 100 where 0 represents no effect and 100 represents complete kill. The results of the examination of the treated pots are set forth below in Table A.
(§2) To further define the selective postemergence herbicidal characteristics of compounds of the present invention, chemicals were applied to additional species of grasses as listed in Table F. Chemicals evaluated were 2-[4-(4-bromo-2-fluorophenoxy)phenoxy]propionic acid methyl ester and its R isomer. Treatment conditions were similar to those described in Example A except that chemicals were delivered through a track sprayer set to deliver the appropriate dosages in 280.6 L/hectare of water containing 0.1% Tween-20 surfactant.

[2] = system: Giant Foxtail
Experimental: as §1, §2

[3] = system: Canarygrass
Experimental: as §1, §2

[4] = system: Broadleaf Signalgrass
Experimental: as §1, §2

[5] = system: Wheat
Experimental: as §1, §2

[6] = system: Annual Rye
Experimental: as §1, §2

[7] = system: Barley
Experimental: as §1, §2

[8] = system: Wild Oats
Experimental: as §1, §2

[9] = system: Wild Proso Millet
Experimental: as §1, §2

[10] = system: Cheatgrass
Experimental: as §1, §2

[11] = system: Tall Fescue
Experimental: as §1, §2

[12] = system: Barnyardgrass
Experimental: as §1, §2

## COC(=O)C(C)Oc1ccc(Oc2ccc(Br)cc2F)cc1 (racemic) [Example 4-Bromo-, 2-[4-(4-bromo-2-fluorophenoxy)phenoxy]propionic acid methyl ester]
[1]; 0.0011 kgs/hectare
  Percent Control: 0%
[1]; 0.0023 kgs/hectare
  Percent Control: 20%
[1]; 0.0045 kgs/hectare
  Percent Control: 50%
[1]; 0.009 kgs/hectare
  Percent Control: 80%
[1]; 0.035 kgs/hectare
  Percent Control: 100%
[1]; 0.14 kgs/hectare
  Percent Control: 100%
[1]; 0.28 kgs/hectare
  Percent Control: 100%
[1]; 0.56 kgs/hectare
  Percent Control: 100%
[2]; 0.0011 kgs/hectare
  Percent Control: 100%
[2]; 0.0023 kgs/hectare
  Percent Control: 100%
[2]; 0.0045 kgs/hectare
  Percent Control: 100%
[2]; 0.009 kgs/hectare
  Percent Control: 100%
[2]; 0.035 kgs/hectare
  Percent Control: 100%
[2]; 0.14 kgs/hectare
  Percent Control: 100%
[2]; 0.28 kgs/hectare
  Percent Control: 100%
[2]; 0.56 kgs/hectare
  Percent Control: 100%
[3]; 0.0011 kgs/hectare
  Percent Control: 0%
[3]; 0.0023 kgs/hectare
  Percent Control: 0%
[3]; 0.0045 kgs/hectare
  Percent Control: 0%
[3]; 0.009 kgs/hectare
  Percent Control: 0%
[3]; 0.035 kgs/hectare
  Percent Control: 50%
[3]; 0.07 kgs/hectare
  Percent Control: 100%
[3]; 0.14 kgs/hectare
  Percent Control: 100%
[3]; 0.28 kgs/hectare
  Percent Control: 100%
[3]; 0.56 kgs/hectare
  Percent Control: 100%
[4]; 0.0011 kgs/hectare
  Percent Control: 70%
[4]; 0.0023 kgs/hectare
  Percent Control: 90%
[4]; 0.0045 kgs/hectare
  Percent Control: 80%
[4]; 0.009 kgs/hectare
  Percent Control: 100%
[4]; 0.035 kgs/hectare
  Percent Control: 100%
[4]; 0.07 kgs/hectare
  Percent Control: 100%
[4]; 0.14 kgs/hectare
  Percent Control: 100%
[4]; 0.28 kgs/hectare
  Percent Control: 100%
[4]; 0.56 kgs/hectare
  Percent Control: 100%
[5]; 0.0011 kgs/hectare
  Percent Control: 0%
[5]; 0.0023 kgs/hectare
  Percent Control: 0%
[5]; 0.0045 kgs/hectare
  Percent Control: 0%
[5]; 0.009 kgs/hectare
  Percent Control: 0%
[5]; 0.018 kgs/hectare
  Percent Control: 0%
[5]; 0.035 kgs/hectare
  Percent Control: 0%
[5]; 0.07 kgs/hectare
  Percent Control: 0%
[5]; 0.14 kgs/hectare
  Percent Control: 10%
[5]; 0.28 kgs/hectare
  Percent Control: 40%
[5]; 0.56 kgs/hectare
  Percent Control: 50%
[6]; 0.0011 kgs/hectare
  Percent Control: 0%
[6]; 0.0023 kgs/hectare
  Percent Control: 0%
[6]; 0.0045 kgs/hectare
  Percent Control: 0%
[6]; 0.009 kgs/hectare
  Percent Control: 20%
[6]; 0.035 kgs/hectare
  Percent Control: 40%
[6]; 0.07 kgs/hectare
  Percent Control: 100%
[6]; 0.14 kgs/hectare
  Percent Control: 100%
[6]; 0.28 kgs/hectare
  Percent Control: 100%
[6]; 0.56 kgs/hectare
  Percent Control: 100%
[7]; 0.0011 kgs/hectare
  Percent Control: 0%
[7]; 0.0023 kgs/hectare
  Percent Control: 0%
[7]; 0.0045 kgs/hectare
  Percent Control: 0%
[7]; 0.009 kgs/hectare
  Percent Control: 0%
[7]; 0.018 kgs/hectare
  Percent Control: 0%
[7]; 0.035 kgs/hectare
  Percent Control: 0%
[7]; 0.07 kgs/hectare
  Percent Control: 0%
[7]; 0.14 kgs/hectare
  Percent Control: 10%
[7]; 0.28 kgs/hectare
  Percent Control: 20%
[7]; 0.56 kgs/hectare
  Percent Control: 50%
[8]; 0.0011 kgs/hectare
  Percent Control: 0%
[8]; 0.0023 kgs/hectare
  Percent Control: 0%
[8]; 0.0045 kgs/hectare
  Percent Control: 0%
[8]; 0.009 kgs/hectare
  Percent Control: 0%
[8]; 0.035 kgs/hectare
  Percent Control: 40%
[8]; 0.07 kgs/hectare
  Percent Control: 40%
[8]; 0.14 kgs/hectare
  Percent Control: 70%
[8]; 0.28 kgs/hectare
  Percent Control: 90%
[8]; 0.56 kgs/hectare
  Percent Control: 100%
[9]; 0.0011 kgs/hectare
  Percent Control: 20%
[9]; 0.0023 kgs/hectare
  Percent Control: 20%
[9]; 0.0045 kgs/hectare
  Percent Control: 70%
[9]; 0.009 kgs/hectare
  Percent Control: 80%
[9]; 0.035 kgs/hectare
  Percent Control: 100%
[9]; 0.07 kgs/hectare
  Percent Control: 100%
[9]; 0.14 kgs/hectare
  Percent Control: 100%
[9]; 0.28 kgs/hectare
  Percent Control: 100%
[9]; 0.56 kgs/hectare
  Percent Control: 100%
[10]; 0.0011 kgs/hectare
  Percent Control: 0%
[10]; 0.0023 kgs/hectare
  Percent Control: 0%
[10]; 0.0045 kgs/hectare
  Percent Control: 0%
[10]; 0.009 kgs/hectare
  Percent Control: 0%
[10]; 0.018 kgs/hectare
  Percent Control: 0%
[10]; 0.035 kgs/hectare
  Percent Control: 0%
[10]; 0.07 kgs/hectare
  Percent Control: 0%
[10]; 0.14 kgs/hectare
  Percent Control: 0%
[10]; 0.28 kgs/hectare
  Percent Control: 0%
[10]; 0.56 kgs/hectare
  Percent Control: 20%
[11]; 0.0011 kgs/hectare
  Percent Control: 0%
[11]; 0.0023 kgs/hectare
  Percent Control: 10%
[11]; 0.0045 kgs/hectare
  Percent Control: 20%
[11]; 0.009 kgs/hectare
  Percent Control: 20%
[11]; 0.035 kgs/hectare
  Percent Control: 60%
[11]; 0.14 kgs/hectare
  Percent Control: 90%
[11]; 0.28 kgs/hectare
  Percent Control: 95%
[11]; 0.56 kgs/hectare
  Percent Control: 95%
[12]; 0.0011 kgs/hectare
  Percent Control: 40%
[12]; 0.0023 kgs/hectare
  Percent Control: 70%
[12]; 0.0045 kgs/hectare
  Percent Control: 100%
[12]; 0.009 kgs/hectare
  Percent Control: 100%
[12]; 0.035 kgs/hectare
  Percent Control: 100%
[12]; 0.07 kgs/hectare
  Percent Control: 100%
[12]; 0.14 kgs/hectare
  Percent Control: 100%
[12]; 0.28 kgs/hectare
  Percent Control: 100%
[12]; 0.56 kgs/hectare
  Percent Control: 100%
